{
  "source": "patent US10556888B2",
  "about": "“Pyrazole compounds or salts thereof, preparation methods therefor, herbicidal compositions and use thereof” (QINGDAO KINGAGROOT CHEMICAL COMPOUNDS CO., LTD, priority 2015, dated 2020)",
  "key": {"[1]": {"test_system": "Monocotyledonous and dicotyledonous weed", "test": "Post-emergence test experiment, weed control effect (Table 2)", "assay_type": "in vivo", "set-up": "key to weed control effect, Setaria viridis (level) / weed control effect, Rorippa indica (level) / weed control effect, Abutilon theophrasti (level) / weed control effect, Echinochloa crus-galli (level) / weed control effect, Digitaria sanguinalis (level): Level 10: completely dead; Level 9: above 90% growth inhibition rate; Level 8: above 80% growth inhibition rate; Level 7: above 70% growth inhibition rate; Level 6: above 60% growth inhibition rate; Level 5: above 50% growth inhibition rate; Level 4: above 30% growth inhibition rate; Level 3: above 20% growth inhibition rate; Level 2: above 10% growth inhibition rate; Level 1: above 1-10% growth inhibition rate; Level 0: no effect", "conditions": "3 weeks after spraying, greenhouse", "procedure,_shortened": "(§1)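 Weed and crop seeds (wheat, corn, rice, soybean, cotton, oilseed, millet, sorghum) grown in soil in greenhouse; sprayed at 2-3 leaf stage, 2-3 weeks after sowing, with compound in acetone/Tween 80/water. Effects assessed after 3 weeks further greenhouse culture.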"}, "[2]": {"test_system": "main crop (wheat, corn, rice, soybean, cotton, oilseed, millet and sorghum)", "test": "Post-emergence test experiment, main crops (Table 2)", "assay_type": "in vivo", "set-up": "key: Level 10: completely dead; Level 9: above 90% growth inhibition rate; Level 8: above 80% growth inhibition rate; Level 7: above 70% growth inhibition rate; Level 6: above 60% growth inhibition rate; Level 5: above 50% growth inhibition rate; Level 4: above 30% growth inhibition rate; Level 3: above 20% growth inhibition rate; Level 2: above 10% growth inhibition rate; Level 1: above 1-10% growth inhibition rate; Level 0: no effect", "conditions": "3 weeks after spraying, greenhouse", "procedure,_shortened": "as §1"}},
  "data": [
    {"smiles": "CCOCc1c(S(C)(=O)=O)ccc(C(=O)c2cnn(C)c2OC(=O)c2cnn(C)c2OCC)c1C", "note": "[Compound 80]", "values": [
      {"measurement": "weed control effect, Abutilon theophrasti (level)", "setting": "[1]; 30 g/ha", "value": "6 (Level 6: above 60% growth inhibition rate)"},
      {"measurement": "weed control effect, Bidens pilosa (level)", "setting": "[1]; 30 g/ha", "value": "7 (Level 7: above 70% growth inhibition rate)"},
      {"measurement": "weed control effect, Digitaria sanguinalis (level)", "setting": "[1]; 30 g/ha", "value": "7 (Level 7: above 70% growth inhibition rate)"},
      {"measurement": "weed control effect, Echinochloa crus-galli (level)", "setting": "[1]; 30 g/ha", "value": 10},
      {"measurement": "weed control effect, Rorippa indica (level)", "setting": "[1]; 30 g/ha", "value": 10},
      {"measurement": "weed control effect, Setaria viridis (level)", "setting": "[1]; 30 g/ha", "value": "6 (Level 6: above 60% growth inhibition rate)"},
      {"measurement": "effect on crop, corn (level)", "setting": "[2]; 30 g/ha", "value": 0},
      {"measurement": "effect on crop, rice (level)", "setting": "[2]; 30 g/ha", "value": "3 (Level 3: above 20% growth inhibition rate)"},
      {"measurement": "effect on crop, wheat (level)", "setting": "[2]; 30 g/ha", "value": 0}
    ]},
    {"smiles": "Cc1cc(C)n(Cc2c(S(C)(=O)=O)ccc(C(=O)c3c(C4CC4)nn(C)c3OC(=O)c3cnn(C)c3)c2Cl)n1", "note": "[Compound 20]", "values": [
      {"measurement": "weed control effect, Abutilon theophrasti (level)", "setting": "[1]; 120 g/ha", "value": "6 (Level 6: above 60% growth inhibition rate)"},
      {"measurement": "weed control effect, Bidens pilosa (level)", "setting": "[1]; 120 g/ha", "value": "6 (Level 6: above 60% growth inhibition rate)"},
      {"measurement": "weed control effect, Digitaria sanguinalis (level)", "setting": "[1]; 120 g/ha", "value": "1 (Level 1: above 1-10% growth inhibition rate)"},
      {"measurement": "weed control effect, Echinochloa crus-galli (level)", "setting": "[1]; 120 g/ha", "value": 10},
      {"measurement": "weed control effect, Rorippa indica (level)", "setting": "[1]; 120 g/ha", "value": "4 (Level 4: above 30% growth inhibition rate)"},
      {"measurement": "weed control effect, Setaria viridis (level)", "setting": "[1]; 120 g/ha", "value": "5 (Level 5: above 50% growth inhibition rate)"},
      {"measurement": "effect on crop, corn (level)", "setting": "[2]; 120 g/ha", "value": 0},
      {"measurement": "effect on crop, rice (level)", "setting": "[2]; 120 g/ha", "value": 0},
      {"measurement": "effect on crop, wheat (level)", "setting": "[2]; 120 g/ha", "value": 0}
    ]},
    {"smiles": "CCOCc1c(S(C)(=O)=O)ccc(C(=O)c2c(C3CC3)nn(C(C)C)c2OC(=O)c2cn(C)nc2C)c1Cl", "note": "[Compound 96]", "values": [
      {"measurement": "weed control effect, Abutilon theophrasti (level)", "setting": "[1]; 60 g/ha", "value": 10},
      {"measurement": "weed control effect, Bidens pilosa (level)", "setting": "[1]; 60 g/ha", "value": "8 (Level 8: above 80% growth inhibition rate)"},
      {"measurement": "weed control effect, Digitaria sanguinalis (level)", "setting": "[1]; 60 g/ha", "value": "8 (Level 8: above 80% growth inhibition rate)"},
      {"measurement": "weed control effect, Echinochloa crus-galli (level)", "setting": "[1]; 60 g/ha", "value": 10},
      {"measurement": "weed control effect, Rorippa indica (level)", "setting": "[1]; 60 g/ha", "value": 10},
      {"measurement": "weed control effect, Setaria viridis (level)", "setting": "[1]; 60 g/ha", "value": 10},
      {"measurement": "effect on crop, corn (level)", "setting": "[2]; 60 g/ha", "value": 0},
      {"measurement": "effect on crop, rice (level)", "setting": "[2]; 60 g/ha", "value": "4 (Level 4: above 30% growth inhibition rate)"},
      {"measurement": "effect on crop, wheat (level)", "setting": "[2]; 60 g/ha", "value": 0}
    ]},
    {"smiles": "Cc1nn(C)cc1C(=O)Oc1c(C(=O)c2ccc(S(C)(=O)=O)c(Cn3cccn3)c2Cl)c(C2CC2)nn1C", "note": "[Compound 13]", "values": [
      {"measurement": "weed control effect, Abutilon theophrasti (level)", "setting": "[1]; 60 g/ha", "value": 10},
      {"measurement": "weed control effect, Bidens pilosa (level)", "setting": "[1]; 60 g/ha", "value": "8 (Level 8: above 80% growth inhibition rate)"},
      {"measurement": "weed control effect, Digitaria sanguinalis (level)", "setting": "[1]; 60 g/ha", "value": 10},
      {"measurement": "weed control effect, Echinochloa crus-galli (level)", "setting": "[1]; 60 g/ha", "value": 10},
      {"measurement": "weed control effect, Rorippa indica (level)", "setting": "[1]; 60 g/ha", "value": 10},
      {"measurement": "weed control effect, Setaria viridis (level)", "setting": "[1]; 60 g/ha", "value": "7 (Level 7: above 70% growth inhibition rate)"},
      {"measurement": "effect on crop, corn (level)", "setting": "[2]; 60 g/ha", "value": 0},
      {"measurement": "effect on crop, rice (level)", "setting": "[2]; 60 g/ha", "value": "1 (Level 1: above 1-10% growth inhibition rate)"},
      {"measurement": "effect on crop, wheat (level)", "setting": "[2]; 60 g/ha", "value": "1 (Level 1: above 1-10% growth inhibition rate)"}
    ]},
    {"smiles": "CCOCCOCc1c(S(C)(=O)=O)ccc(C(=O)c2c(C)nn(C)c2OC(=O)c2cn(C)nc2C)c1Cl", "note": "[Compound 39]", "values": [
      {"measurement": "weed control effect, Abutilon theophrasti (level)", "setting": "[1]; 60 g/ha", "value": 10},
      {"measurement": "weed control effect, Bidens pilosa (level)", "setting": "[1]; 60 g/ha", "value": "8 (Level 8: above 80% growth inhibition rate)"},
      {"measurement": "weed control effect, Digitaria sanguinalis (level)", "setting": "[1]; 60 g/ha", "value": "9 (Level 9: above 90% growth inhibition rate)"},
      {"measurement": "weed control effect, Echinochloa crus-galli (level)", "setting": "[1]; 60 g/ha", "value": 10},
      {"measurement": "weed control effect, Rorippa indica (level)", "setting": "[1]; 60 g/ha", "value": 10},
      {"measurement": "weed control effect, Setaria viridis (level)", "setting": "[1]; 60 g/ha", "value": 10},
      {"measurement": "effect on crop, corn (level)", "setting": "[2]; 60 g/ha", "value": 0},
      {"measurement": "effect on crop, rice (level)", "setting": "[2]; 60 g/ha", "value": "1 (Level 1: above 1-10% growth inhibition rate)"},
      {"measurement": "effect on crop, wheat (level)", "setting": "[2]; 60 g/ha", "value": 0}
    ]},
    {"smiles": "CC=CCOCc1c(S(C)(=O)=O)ccc(C(=O)c2cnn(CC)c2OC(=O)c2cnn(C)c2)c1Cl", "note": "[Compound 88]", "values": [
      {"measurement": "weed control effect, Abutilon theophrasti (level)", "setting": "[1]; 30 g/ha", "value": "6 (Level 6: above 60% growth inhibition rate)"},
      {"measurement": "weed control effect, Bidens pilosa (level)", "setting": "[1]; 30 g/ha", "value": "7 (Level 7: above 70% growth inhibition rate)"},
      {"measurement": "weed control effect, Digitaria sanguinalis (level)", "setting": "[1]; 30 g/ha", "value": "8 (Level 8: above 80% growth inhibition rate)"},
      {"measurement": "weed control effect, Echinochloa crus-galli (level)", "setting": "[1]; 30 g/ha", "value": "7 (Level 7: above 70% growth inhibition rate)"},
      {"measurement": "weed control effect, Rorippa indica (level)", "setting": "[1]; 30 g/ha", "value": 10},
      {"measurement": "weed control effect, Setaria viridis (level)", "setting": "[1]; 30 g/ha", "value": "8 (Level 8: above 80% growth inhibition rate)"},
      {"measurement": "effect on crop, corn (level)", "setting": "[2]; 30 g/ha", "value": 0},
      {"measurement": "effect on crop, rice (level)", "setting": "[2]; 30 g/ha", "value": "3 (Level 3: above 20% growth inhibition rate)"},
      {"measurement": "effect on crop, wheat (level)", "setting": "[2]; 30 g/ha", "value": 0}
    ]},
    {"smiles": "CCn1ncc(C(=O)c2ccc(S(C)(=O)=O)c(Cn3cc(C)cn3)c2C)c1OC(=O)c1cnn(C)c1", "note": "[Compound 87]", "values": [
      {"measurement": "weed control effect, Abutilon theophrasti (level)", "setting": "[1]; 120 g/ha", "value": "6 (Level 6: above 60% growth inhibition rate)"},
      {"measurement": "weed control effect, Bidens pilosa (level)", "setting": "[1]; 120 g/ha", "value": "6 (Level 6: above 60% growth inhibition rate)"},
      {"measurement": "weed control effect, Digitaria sanguinalis (level)", "setting": "[1]; 120 g/ha", "value": "1 (Level 1: above 1-10% growth inhibition rate)"},
      {"measurement": "weed control effect, Echinochloa crus-galli (level)", "setting": "[1]; 120 g/ha", "value": 10},
      {"measurement": "weed control effect, Rorippa indica (level)", "setting": "[1]; 120 g/ha", "value": "4 (Level 4: above 30% growth inhibition rate)"},
      {"measurement": "weed control effect, Setaria viridis (level)", "setting": "[1]; 120 g/ha", "value": "3 (Level 3: above 20% growth inhibition rate)"},
      {"measurement": "effect on crop, corn (level)", "setting": "[2]; 120 g/ha", "value": 0},
      {"measurement": "effect on crop, rice (level)", "setting": "[2]; 120 g/ha", "value": 0},
      {"measurement": "effect on crop, wheat (level)", "setting": "[2]; 120 g/ha", "value": 0}
    ]}
  ]
}
